Results: patent publication EP3611183B1, “EPITOPE PEPTIDE SPECIFICALLY RECOGNIZING AUTOANTIBODY AGAINST AQUAPORIN 5, AND USE THEREOF” (Seoul National University R & DB Foundation, priority 2017, dated 2023)

Tested on: anti-AQP5 autoantibodies
Assay: Indirect immunofluorescence (IIF) assay: AQP5 staining by human serum/IgG pre-incubated with peptide
Format: binding
Settings: for inhibition of anti-AQP5 autoantibodies from the control group: by comparison of the mean signal intensities (Fig. 2B); for frequency of recognition by SS vs control samples: seven peptides originating from the AQP5 sequence
Excerpt: This study was done in compliance with the Helsinki Declaration after approvals from the Institutional Review Board of Seoul National University Hospital (IRB number: 0912-011-302) and the Institutional Review Board of Seoul St. Mary's Hospital (IRB number: KC13ONMI0646). From our previous study (12), 13 control and 24 SS serum samples positive for anti-AQP5 IgG were chosen based on the levels of anti-AQP5 IgG and availability. The first 12 control and 12 SS samples had similar low levels of anti-AQP5 IgG, while the rest of the samples had intermediate to high levels. IgG antibodies were purified using a protein A column (ThermoFisher Scientific, Waltham, MA, USA) from the sera of 3 SS patients who were not included in the previous study. A commercial human IgG product purified from pooled normal sera (Sigma-Aldrich Korea, Seoul, Korea) was used as control. All SS patients fulfilled the 2002 American-European Consensus group classification criteria and/or the 2012 American College of Rheumatology criteria. Madin-Darby canine kidney (MDCK) cells expressing full-length human AQP5 (MDCK-AQP5) were maintained in DMEM medium with 10% FBS and 1% penicillin/streptomycin in the presence of G418 (12). A mixture of non-transfected MDCK and MDCK-AQP5 cells (6 × 10^4) was plated onto collagen-coated coverslips of 12 mm diameter. After stimulation with 0.5 mM cAMP for 24 hours, the cells were fixed with 4% paraformaldehyde in PBS (pH 7.4) and subjected to antigen retrieval by incubation in sodium citrate buffer (10 mM sodium citrate, 0.05% Tween-20, pH 6) at 105 °C for 20 min. After blocking with 5% BSA in PBS, the cells were incubated with goat polyclonal antibodies raised against a peptide near the C-terminus of human AQP5 (Santa Cruz, Paso Robles, CA, USA) along with control/SS sera (1:200 dilution) or purified IgG (10 µg) that were pre-incubated overnight with 10 µg synthetic peptides in RIA buffer (10 mM Tris-HCl, 350 mM NaCl, 1% BSA, 1% Triton X-100, 0.5 % Sodium deoxycholate, 0.1% SDS, 10% Horse serum, pH 7.6). Subsequently, the cells were stained with Alexa Fluor 488-conjugated donkey anti-goat IgG (Invitrogen, Carlsbad, CA, USA) and CF™ 594-conjugated rabbit anti-human IgG (Sigma-Aldrich). At least four images of AQP5-expressing cells were randomly selected, based on the goat anti-AQP5 antibody stain, and imaged sequentially for the staining with human IgG using a confocal microscope (Carl Zeiss, Jena, Germany). After coding the images, two individuals blindly determined the relative intensities of the anti-AQP5 human IgG signals by decreasing the brightness of the red signal until all the signals of AQP5 stain disappeared. […] The mean of the Δ brightness was used to express the anti-AQP5 IgG level in each sample. The differences in proportion between two groups were determined by Fisher's exact test. Differences in means between the experimental and control groups were determined by Student's t-test, while the differences among peptides were determined by Oneway ANOVA. All statistical analyses were performed using SPSS (SPSS Inc., Chicago, USA). To analyze the epitopes recognized by anti-AQP5 autoantibodies, MDCK-AQP5 cells were double stained with goat anti-AQP5 antibodies and serum from either control subjects or SS patients that were pre-incubated with each peptide (Fig. 2A). The intensity of AQP5 staining by human IgG in the presence of each peptide was expressed as the percentage of control conditions in the absence of peptides (Table 2). Because the normalized intensities of AQP5 staining in the presence of IRP varied from 69 to 173 depending on the sample, signal intensities smaller than 62.2, which is the mean - 2SD of values in the presence of IRP, were regarded as being inhibited by the corresponding peptide.

Sequence	inhibition of anti-AQP5 autoantibodies from the control group	frequency of recognition by SS vs control samples	control samples inhibited by / recognizing the peptide (14 control samples (13 sera, 1 control-IgG), inhibited = signal intensity smaller than 62.2)	SS samples inhibited by / recognizing the peptide (27 SS samples (24 sera, 3 purified IgG), inhibited = signal intensity smaller than 62.2)
CMNPARSFGC (Epitope of AQP5 Extracellular loop E with Cystein added at N- and C- term) [E2, Extracellular loop E aa 184-191 with added terminal cysteines]	significantly inhibited	more frequently recognized by SS than by control samples		
GCSMNPARSFGC (Epitope of AQP5 Extracellular loop E with Cystein added at C- term) [peptide E1, Extracellular loop E aa 181-191 with C-terminal cysteine added]	significantly inhibited	most frequently recognized	2 of 14	20 of 27
